US11549147B2, “Treatment of atopic dermatitis with tradipitant” (VANDA PHARMACEUTICALS INC., priority 2017, dated 2023)

System: treatment-resistant pruritus associated with atopic dermatitis, high or low baseline IgE
Test: Exploratory analysis of study NCT02651714 by baseline IgE level (Example 4)
Assay type: in vivo, human
Design: Average Itch NRS / Average Itch NRS, Diff / Sleep Disturbance / Extension / Excoriations, Diff / Erythema / Skin dryness / Skin dryness, Diff / Itch / Itch, Diff / Insomnia / Insomnia, Diff / CGIC / CGIC, Diff / VRS / VRS, Diff / Average Itch VAS / Average Itch VAS, Diff / worst Itch VAS, Diff: scale not given here
Conditions: 85 mg bid; for Average Itch NRS, Diff / Average Itch VAS, Diff / CGIC, Diff / EASI, Diff / Erythema, Diff / Excoriations, Diff / Extension, Diff / Insomnia, Diff / Intensity, Diff / Itch, Diff / Lichenification, Diff / Log EASI, Diff / Objective SCORAD, Diff / Oozing/crusting, Diff / PBI, Diff / PGIC AD, Diff / PGIC ITCH, Diff / SCORAD Total, Diff / Skin dryness, Diff / Sleep Disturbance, Diff / Subjective SCORAD, Diff / VRS, Diff / Worst Itch NRS Day, Diff / Worst Itch NRS Night, Diff / Worst Itch NRS, Diff / edema/Papules, Diff / worst Itch VAS >= 30, Diff / worst Itch VAS, Diff / worst ItchVAS >= 40, Diff / EASI 75, Diff / SCORAD 50, Diff: Diff tradipitant vs placebo; for Average Itch NRS / Average Itch VAS / EASI / Log EASI / Objective SCORAD / SCORAD Total / Sleep Disturbance / Subjective SCORAD / VRS / Worst Itch NRS / Worst Itch NRS Day / Worst Itch NRS Night / worst Itch VAS: week 8, vs baseline; for worst Itch VAS >= 30 / worst ItchVAS >= 40: Fisher; for Erythema / Excoriations / Extension / Intensity / Lichenification / Oozing/crusting / Skin dryness / edema/Papules: objective SCORAD parameter; for Insomnia / Itch: subjective SCORAD parameter
Procedure: In the study described above in Example 3, an exploratory analysis is conducted to analyze Immunoglobulin E (IgE) levels and the effect of treatment with tradipitant on atopic dermatitis and pruritus. For purposes of the analysis, study participants having an IgE level greater than or equal to 100 kU/L are deemed to have a high IgE level, while study participants having an IgE level of less than 100 kU/L are deemed to have a low IgE level. The baseline mean and range SCORAD total for each of the total study population, the high IgE group, and the low IgE group are shown below in Table 5.
The mean and range of SCORAD totals shown in Table 5 illustrate that the study population spans different strata of disease severity, from mild to severe. Table 5 also illustrates the similarity in disease severity between the high IgE and low IgE groups. Table 6 (below) presents the study results of tradipitant in treatment-resistant pruritus associated with atopic dermatitis in individuals having high baseline IgE levels (IgE≥100 kU/L), while Table 7 (below) presents the study results of tradipitant in treatment-resistant pruritus associated with atopic dermatitis in individuals having low baseline IgE levels (IgE<100 kU/L). The data in Tables 6-7 represent a separation by IgE level of the data appearing in Table 4 above.
For purposes of the present analysis, individuals having an IgE level greater than or equal to 100 kU/L are considered to have high IgE levels, while individuals having an IgE level of less than 100 kU/L are considered to have low IgE levels.

[1] = high baseline IgE (≥100 kU/L), week 8
[2] = high baseline IgE (≥100 kU/L), week 8, LOCF
[3] = low baseline IgE (<100 kU/L), week 8
[4] = low baseline IgE (<100 kU/L), week 8, LOCF
[5] = high baseline IgE (≥100 kU/L), ITT, week 8
[6] = high baseline IgE (≥100 kU/L), ITT
[7] = high baseline IgE (≥100 kU/L), ITT, week 8, LOCF
[8] = low baseline IgE (<100 kU/L), ITT, week 8
[9] = low baseline IgE (<100 kU/L), ITT
[10] = low baseline IgE (<100 kU/L), ITT, week 8, LOCF

## O=C(c1ccccc1Cl)c1cccnc1-c1nnn(Cc2cc(C(F)(F)F)cc(C(F)(F)F)c2)c1-c1ccncc1 [Tradipitant]
[1]
  Average Itch NRS, Diff: −1.6
  Average Itch VAS, Diff: −14.97
  CGIC, Diff: −0.96
  EASI, Diff: −1.13
  Erythema, Diff: −0.15
  Excoriations, Diff: −0.56
  Extension, Diff: −0.72
  Insomnia, Diff: −1.12
  Intensity, Diff: −1.75
  Itch, Diff: −2.04
  Lichenification, Diff: −0.27
  Log EASI, Diff: −0.46
  Objective SCORAD, Diff: −6.4
  Oozing/crusting, Diff: −0.23
  PBI, Diff: 0.67
  PGIC AD, Diff: −0.91
  PGIC ITCH, Diff: −0.82
  SCORAD Total, Diff: −9.9
  Skin dryness, Diff: −0.27
  Sleep Disturbance, Diff: −1.7
  Subjective SCORAD, Diff: −3.1
  VRS, Diff: −0.5597
  Worst Itch NRS Day, Diff: −2.06
  Worst Itch NRS Night, Diff: −2.14
  Worst Itch NRS, Diff: −2.1
  edema/Papules, Diff: −0.39
  worst Itch VAS >= 30, Diff: 36.3%
  worst Itch VAS, Diff: −25.7
  worst ItchVAS >= 40, Diff: 28.4%
[2]
  EASI 75, Diff: 18.3%
  SCORAD 50, Diff: 36.6%
[3]
  Average Itch NRS, Diff: 0.4
  Average Itch VAS, Diff: 6.8
  CGIC, Diff: −0.3
  EASI, Diff: −0.47
  Erythema, Diff: −0.31
  Excoriations, Diff: −0.24
  Extension, Diff: −0.94
  Insomnia, Diff: 0.29
  Intensity, Diff: −0.99
  Itch, Diff: 0.13
  Lichenification, Diff: −0.03
  Log EASI, Diff: −0.21
  Objective SCORAD, Diff: −3.7
  Oozing/crusting, Diff: −0.18
  PBI, Diff: 0.5
  PGIC AD, Diff: −0.6
  PGIC ITCH, Diff: −0.48
  SCORAD Total, Diff: −2.8
  Skin dryness, Diff: −0.40
  Sleep Disturbance, Diff: 0.2
  Subjective SCORAD, Diff: 0.43
  VRS, Diff: −0.23
  Worst Itch NRS Day, Diff: 0.43
  Worst Itch NRS Night, Diff: 0.08
  Worst Itch NRS, Diff: 0.3
  edema/Papules, Diff: 0.08
  worst Itch VAS >= 30, Diff: −3.2%
  worst Itch VAS, Diff: −0.9
  worst ItchVAS >= 40, Diff: 5.6%
[4]
  EASI 75, Diff: 1.8%
  SCORAD 50, Diff: 7.7%
[5]
  CGIC: 2.6
  PBI: 1.7
  PGIC AD: 3.0
  PGIC ITCH: 2.7
  worst Itch VAS >= 30: 57.9%
  worst ItchVAS >= 40: 50.0%
  Erythema: −0.46
  Excoriations: −0.80
  Extension: −2.4
  Intensity: −3.2
  Lichenification: −0.42
  Oozing/crusting: −0.53
  Skin dryness: −0.62
  edema/Papules: −0.62
  Insomnia: −4.0
  Itch: −4.7
[6]
  Average Itch NRS: −3.4
  Average Itch VAS: −41.9
  EASI: −3.78
  Log EASI: −0.8
  Objective SCORAD: −11.7
  SCORAD Total: −20.3
  Sleep Disturbance: −3.5
  Subjective SCORAD: −8.7
  VRS: −1.529
  Worst Itch NRS: −3.6
  Worst Itch NRS Day: −3.7
  Worst Itch NRS Night: −3.8
  worst Itch VAS: −43.9
[7]
  EASI 75: 23.7%
  SCORAD 50 (patients with at least a 50 percent reduction of SCORAD): 47.4%
High baseline IgE (≥100 kU/L), ITT, week 8, LOCF, listed as tradipitant
  SCORAD 50 (patients with at least a 50 percent reduction of SCORAD): 47%
[8]
  CGIC: 2.7
  PBI: 1.98
  PGIC AD: 2.4
  PGIC ITCH: 2.3
  worst Itch VAS >= 30: 55.6%
  worst ItchVAS >= 40: 55.6%
  Erythema: −0.74
  Excoriations: −0.74
  Extension: −1.9
  Intensity: −3.6
  Lichenification: −0.49
  Oozing/crusting: −0.61
  Skin dryness: −0.73
  edema/Papules: −0.43
  Insomnia: −3.2
  Itch: −4.0
[9]
  Average Itch NRS: −2.9
  Average Itch VAS: −39.3
  EASI: −2.7
  Log EASI: −0.67
  Objective SCORAD: −13.1
  SCORAD Total: −19.9
  Sleep Disturbance: −3.0
  Subjective SCORAD: −7.2
  VRS: −1.54
  Worst Itch NRS: −2.9
  Worst Itch NRS Day: −2.9
  Worst Itch NRS Night: −3.0
  worst Itch VAS: −44
[10]
  EASI 75: 19.4%
  SCORAD 50: 40.0%
Regardless of IgE cutoff (50 to 300 kU/L)
  treatment effect in itch and disease severity, high IgE group compared to low IgE group: consistently stronger treatment effect
